# Measured values reported in patent US20110306597A1, “Nicotinamide Derivatives” (priority 2008, published 2011).
# Biological target: human recombinant H-PGDS (Homo sapiens, UniProt O60760)
# Assay: Fluorescence Intensity h-PGDS TBA Enzyme Assay
# Format: biochemical
# Settings: 1:175,000 human recombinant H-PGDS, highest inhibitor concentration typically 1 μM
# Description: Fluorescence Intensity h-PGDSTBA Enzyme Assay
# Prostaglandin D Synthase (PGDS) converts the substrate prostaglandin H2 (PGH2) to prostaglandin D2. The depletion of PGH2 was measured via an Fe(II) reduction of the remaining PGH2 to malondialdehyde (MDA) and 12-HHT. The enzyme assay is based on the quantitative formation of a fluorescent complex from the non-fluorescent compounds MDA and 2-thiobarbituric acid (TBA), substantially as described in U.S. patent application publication US-2004/152148 by Lombardt.
# The enzyme assay (31 μls) contained 100 mM Tris base pH 8.0, 100 μM MgCl2, 0.1 mg/ml IgG Rabbit serum, 5.0 μM PGH2 (Cayman; ethanol solution, #17020), 2.5 mM L-Glutathione (Sigma; reduced form #G4251), 1:175,000 human recombinant H-PGDS (from 1 mg/ml), 0.5% DMSO and inhibitor (varying concentration). Three μls of diluted inhibitor (dissolved in DMSO) was plated into a 384-well assay plate followed by a 25 μl addition of an enzyme solution containing h-PGDS, Tris, MgCl2, IgG and L-Glutathione. After preincubation of inhibitor and enzyme solution for 10 minutes at room temperature, the reaction was initiated with a 3 μl addition of substrate solution in 10 mM HCl. The reaction was terminated after 42 second by the addition (3 μl) of stop buffer containing FeCl2 and citric acid. After addition of 45.5 μls of TBA plates were heated for one hour in a 70 C oven. Plates were cooled at room temperature overnight and read on a plate reader the next day with excitation @ 530 nm and emission @ 565 nm.
# IC50's of inhibitors were calculated with a 4-parameter fit using 11 inhibitor concentrations in duplicate with 3-fold serial dilutions. Controls on each plate included no inhibitor (zero % effect) and an inhibitor 10-fold in excess of its' IC50 (100% effect). The highest inhibitor concentration tested was typically 1 μM.
# human recombinant H-PGDS, sequence (O60760 whole entry): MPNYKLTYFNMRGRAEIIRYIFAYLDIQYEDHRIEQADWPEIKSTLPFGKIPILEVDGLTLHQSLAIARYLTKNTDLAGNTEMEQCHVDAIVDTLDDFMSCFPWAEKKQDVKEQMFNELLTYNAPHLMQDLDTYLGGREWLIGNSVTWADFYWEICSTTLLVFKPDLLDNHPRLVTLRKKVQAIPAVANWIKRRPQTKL
row,Molecule,IC50
1,"CCOC(=O)C(CNC(=O)c1ccc(-c2cccc(F)c2)nc1)c1c(F)cccc1F (centres unmarked) [Example 163, Ethyl 2-(2,6-difluorophenyl)-3-({[6-(3-fluorophenyl)pyridin-3-yl]carbonyl}amino)propanoate]",146 nM
2,"O=C(NCC1CCCCO1)c1ccc(-c2cccc(F)c2)nc1 (centres unmarked) [Example 525, 6-(3-Fluorophenyl)-N-(tetrahydro-2H-pyran-2-ylmethyl)nicotinamide]",68.5 nM
3,"O=C(NCCC1CCC(=O)N1CCN1CCCC1)c1ccc(-c2cccc(F)c2)nc1 (centres unmarked) [Example 75, 6-(3-Fluorophenyl)-N-{2-[5-oxo-1-(2-pyrrolidin-1-ylethyl)pyrrolidin-2-yl]ethyl}nicotinamide]",48 nM
4,"COc1ccc(CNC(=O)c2ccc(-c3ccc(F)cc3)nc2)cc1 [Example 478, 6-(4-Fluorophenyl)-N-(4-methoxybenzyl)nicotinamide]",377 nM
5,"O=C(NCCCNc1ccccn1)c1ccc(-c2ccc(F)cc2)nc1 [Example 261, 6-(4-Fluorophenyl)-N-[3-(pyridin-2-ylamino)propyl]nicotinamide]",91.8 nM
6,"O=C(NC1CCN(Cc2ccc(Cl)cc2)C1=O)c1ccc(-c2cccc(F)c2)nc1 (centres unmarked) [Example 431, N-[1-(4-Chlorobenzyl)-2-oxopyrrolidin-3-yl]-6-(3-fluorophenyl)nicotinamide]",59 nM
7,N-(4-Fluorophenyl)-6-(3- fluorophenyl)nicotinamide [Example 425],52.6 nM
8,"O=C(NCCN1CCN(Cc2ccccc2)CC1)c1ccc(-c2ccc(F)cc2)nc1 [Example 476, N-[2-(4-Benzylpiperazin-1-yl)ethyl]-6-(4-fluorophenyl)nicotinamide]",≥ 1000 nM
9,"COc1cccc(-c2ccc(C(=O)NCC(C)(C)OC)cn2)c1 [Example 282, N-(2-Methoxy-2-methylpropyl)-6-(3-methoxyphenyl)nicotinamide]",959 nM
10,"CCC(C)NC(=O)c1ccc(-c2ccc(F)cc2)nc1 (centres unmarked) [Example 492, N-sec-Butyl-6-(4-fluorophenyl)nicotinamide]",≥ 1000 nM
11,"CC(C)OCCCN1CC(CNC(=O)c2ccc(-c3cccc(F)c3)nc2)OCC1=O (centres unmarked) [Example 216, 6-(3-Fluorophenyl)-N-{[4-(3-isopropoxypropyl)-5-oxomorpholin-2-yl]methyl}nicotinamide]",128 nM
12,"Cc1cccc(-c2ccc(C(=O)NCCc3cccs3)cn2)c1 [Example 321, 6-(3-Methylphenyl)-N-[2-(2-thienyl)ethyl]nicotinamide]",84.5 nM
13,"CC[C@H](CC#N)NC(=O)c1ccc(-c2cccc(F)c2)nc1 [Example 65, N-[(1R)-1-(Cyanomethyl)propyl]-6-(3-fluorophenyl)nicotinamide]",60.3 nM
14,N-(4-Fluorophenyl)-6-(3- methoxyphenyl)nicotinamide [Example 307],187 nM
15,"Cn1ccnc1C(NC(=O)c1ccc(-c2cccc(F)c2)nc1)c1c(F)cccc1F (centres unmarked) [Example 25, N-[(2,6-Difluorophenyl)(1-methyl-1H-imidazol-2-yl)methyl]-6-(3-fluorophenyl)nicotinamide]",399 nM
16,"COC(=O)CNC(=O)[C@H](C)NC(=O)c1ccc(-c2ccc(F)cc2)nc1 [Example 263, Methyl N-{[6-(4-fluorophenyl)pyridin-3-yl]carbonyl}-L-alanylglycinate]",825 nM
17,"COC(=O)CC(NC(=O)c1ccc(-c2ccc(F)cc2)nc1)c1cccnc1 (centres unmarked) [Example 323, Methyl 3-({[6-(4-fluorophenyl)pyridin-3-yl]carbonyl}amino)-3-pyridin-3-ylpropanoate]",≥ 1000 nM
18,"COC(=O)CCNC(=O)c1ccc(-c2cccc(OC)c2)nc1 [Example 335, Methyl N-{[6-(3-methoxyphenyl)pyridin-3-yl]carbonyl}-beta-alaninate]",352 nM
19,"COc1cccc(-c2ccc(C(=O)NCCc3ccncc3)cn2)c1 [Example 345, 6-(3-Methoxyphenyl)-N-(2-pyridin-4-ylethyl)nicotinamide]",308 nM
20,"COC(=O)c1ccc(CNC(=O)c2ccc(-c3ccc(F)cc3)nc2)cc1 [Example 268, Methyl 4-[({[6-(4-fluorophenyl)pyridin-3-yl]carbonyl}amino)methyl benzoate]",286 nM
21,"O=C(NCc1ccco1)c1ccc(-c2ccc(F)cc2)nc1 [Example 473, 6-(4-Fluorophenyl)-N-(2-furylmethyl)nicotinamide]",381 nM
22,"O=C(NCCN1CCCC1)c1ccc(-c2ccc(F)cc2)nc1 [Example 469, 6-(4-Fluorophenyl)-N-(2-pyrrolidin-1-ylethyl)nicotinamide]",≥ 1000 nM
23,"Cc1cccc(-c2ccc(C(=O)NCCN3CCCCC3=O)cn2)c1 [Example 224, 6-(3-Methylphenyl)-N-[2-(2-oxopiperidin-1-yl)ethyl]nicotinamide]",56.4 nM
24,"CNC(=O)N1[C@@H]2CC[C@H]1C[C@H](NC(=O)c1ccc(-c3cccc(F)c3)nc1)C2 [Example 594, (3-exo)-3-({[6-(3-Fluorophenyl)-pyridin-3-yl]carbonyl}amino)-N-methyl-8-azabicyclo[3.2.1]octane-8-carboxamide]",17 nM

# More lines, now with the values ahead:
row,IC50,Molecule
1,47.2 nM,"COC(=O)CC(NC(=O)c1ccc(-c2cccc(C)c2)nc1)c1cccnc1 (centres unmarked) [Example 230, Methyl 3-({[6-(3-methylphenyl)pyridin-3-yl]carbonyl}amino)-3-pyridin-3-ylpropanoate]"
2,39.9 nM,"Cc1cccc(-c2ccc(C(=O)NCCNc3ccccc3)cn2)c1 [Example 490, N-(2-Anilinoethyl)-6-(3-methylphenyl)nicotinamide]"
3,4.1 nM,"COc1ccccc1-c1nnc(CCNC(=O)c2ccc(-c3cccc(F)c3)nc2)o1 [Example 16, 6-(3-Fluorophenyl)-N-{2-[5-(2-methoxyphenyl)-1,3,4-oxadiazol-2-yl]ethyl}nicotinamide]"
4,34.7 nM,"O=C(NCCOCc1nc2ccccc2[nH]1)c1ccc(-c2cccc(F)c2)nc1 [Example 76, N-[2-(1H-Benzimidazol-2-ylmethoxy)ethyl]-6-(3-fluorophenyl)nicotinamide]"
5,8.19 nM,"O=C(Nc1ccncc1)c1ccc(-c2cccc(F)c2)nc1 [Example 177, 6-(3-Fluorophenyl)-N-pyridin-4-ylnicotinamide]"
6,17.6 nM,"NC(=O)[C@H](Cc1ccccc1)NC(=O)c1ccc(-c2cccc(F)c2)nc1 [Example 29, Nalpha-{[6-(3-fluorophenyl)pyridin-3-yl]carbonyl} phenylalaninamide]"
7,17.2 nM,"O=C(NC(CCc1ccccc1)c1nn[nH]n1)c1ccc(-c2cccc(F)c2)nc1 (centres unmarked) [Example 62, 6-(3-Fluorophenyl)-N-[3-phenyl-1-(2H-tetrazol-5-yl)propyl]nicotinamide]"
8,11.6 nM,"O=C(NCCc1ccncc1)c1ccc(-c2ccccc2)nc1 [Example 356, 6-Phenyl-N-(2-pyridin-4-ylethyl)nicotinamide]"
9,4.89 nM,"Cc1ccc(C#N)c(N2C[C@H](NC(=O)c3ccc(-c4cccc(F)c4)nc3)[C@@H](O)C2)n1 [Example 562, N-[(3S,4S)-1-(3-Cyano-6-methylpyridin-2-yl)-4-hydroxypyrrolidin-3-yl]-6-(3-fluorophenyl)nicotinamide]"
10,20 nM,"COc1ccccc1-c1nnc(CNC(=O)c2ccc(-c3cccc(F)c3)nc2)o1 [Example 439, 6-(3-Fluorophenyl)-N-{[5-(2-methoxyphenyl)-1,3,4-oxadiazol-2-yl]methyl}nicotinamide]"
11,25.9 nM,"Cc1cccc(-c2ccc(C(=O)NCc3ccc(S(N)(=O)=O)cc3)cn2)c1 [Example 449, N-[4-(Aminosulfonyl)benzyl]-6-(3-methylphenyl)nicotinamide]"
12,18.1 nM,"Cc1cccc(-c2ccc(C(=O)NCc3ccc(S(C)(=O)=O)cc3)cn2)c1 [Example 247, 6-(3-Methylphenyl)-N-[4-(methylsulfonyl)benzyl] nicotinamide]"
13,9.13 nM,"O=C(NCCN1CCCCC1=O)c1ccc(-c2cccc(F)c2)nc1 [Example 164, 6-(3-Fluorophenyl)-N-[2-(2-oxopiperidin-1-yl)ethyl]nicotinamide]"
14,16.9 nM,"Cc1ccccc1CNC(=O)c1ccc(-c2cc(F)cc(F)c2)nc1 [Example 541, 6-(3,5-Difluorophenyl)-N-(2-methylbenzyl)nicotinamide]"
15,34 nM,"O=C(NCc1nc2cc(F)ccc2[nH]1)c1ccc(-c2cccc(F)c2)nc1 [Example 146, N-[(5-Fluoro-1H-benzimidazol-2-yl)methyl]-6-(3-fluorophenyl)nicotinamide]"
16,13.1 nM,"CCOC(=O)CCNC(=O)c1ccc(-c2cccc(F)c2)nc1 [Example 209, Ethyl N-{[6-(3-fluorophenyl)pyridin-3-yl]carbonyl}-beta-alaninate]"
17,34.6 nM,"O=C(NCCN1CCOC1=O)c1ccc(-c2cccc(F)c2)nc1 [Example 186, 6-(3-Fluorophenyl)-N-[2-(2-oxo-1,3-oxazolidin-3-yl)ethyl]nicotinamide]"
